Laboratory results from patent US11000033B2, “Ketone or oxime compound, and herbicide” (NISSAN CHEMICAL CORPORATION, priority 2014, dated 2021).

Tests used:
Assay type in all cases: in vivo
Alopecurus myosuroides [1] = assay: Test Example 4: herbicidal effect by soil treatment (symbol J)
In short: (§1)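 Seeds were sown in sterilized diluvial soil, covered with about 1.5 cm of soil, and the soil surface was sprayed with a water-diluted emulsion of the compound at a predetermined rate. Plants grew in a greenhouse at 25° C. to 30° C.; effects were scored visually 3 weeks after application.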

Avena fatua = assay: Test Example 4: herbicidal effect by soil treatment (symbol I)
In short: as §1

soybean = assay: Test Example 4: effect on crop by soil treatment (symbol d)
In short: (§2)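 Seeds were sown in spots on sterilized diluvial soil in a plastic box and covered with about 1.5 cm of soil. Plants were then grown in a greenhouse at 25° C. to 30° C.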

wheat = assay: Test Example 4: effect on crop by soil treatment (symbol e)
In short: as §2

[2] = test system: Echinochloa crus-galli var. crus-galli; assay: Test Example 5: herbicidal effect by foliage application, plastic box (symbol H); conditions: 3 weeks after application
In short: (§3)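 Effect is rated 3 weeks after a foliar spray of water-diluted emulsion concentrate at a predetermined herbicide amount. Plants had grown 14 days in a 25° C. to 30° C. greenhouse from seed in sterilized diluvial soil.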

Monochoria vaginalis = assay: Test Example 2: herbicidal activity, application during weed generation in submerged conditions (symbol C); conditions: Table 23, grade 0-5 by criteria of Test Example 1
In short: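 Compound was applied as a water-diluted emulsion into the standing water of flooded pots (4 cm) once co-sown weeds reached one to two leaves. Greenhouse temperature was 25° C. to 30° C., soil was alluvial, and each species was rated visually after 3 weeks.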

Setaria viridis = assay: Test Example 4: herbicidal effect by soil treatment (symbol G)
In short: as §1

Alopecurus myosuroides [3] = assay: Test Example 5: herbicidal effect by foliage application, plastic box (symbol J); conditions: 3 weeks after application
In short: as §3

Scirpus juncoides = assay: Test Example 1: herbicidal activity, application before weed generation in submerged conditions (symbol B)
In short: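 Flooded alluvial soil (4 cm water) was mixed-sown with the three weed species, and 2.5-leaf rice seedlings were transplanted. On sowing day, a water-diluted emulsion at a predetermined rate was applied to the water surface. After 3 weeks in a 25–30 °C greenhouse, effect was scored 0–5.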

rice = assay: Test Example 4: effect on crop by soil treatment (symbol b)
In short: as §2

Digitaria ciliaris = assay: Test Example 5: herbicidal effect by foliage application, plastic box (symbol F); conditions: 3 weeks after application
In short: as §3

Veronica persica = assay: Test Example 4: herbicidal effect by soil treatment (symbol R)
In short: as §1

Stellaria media = assay: Test Example 4: herbicidal effect by soil treatment (symbol P)
In short: as §1

rice plant = assay: Test Example 5: effect on crop by foliage application, plastic box (symbol b); conditions: 3 weeks after application
In short: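 Foliage-application test plants come from spot sowing in sterilized diluvial soil under a soil layer of about 1.5 cm, grown at 25° C. to 30° C. in a greenhouse.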

Chenopodium album = assay: Test Example 5: herbicidal effect by foliage application, plastic box (symbol O); conditions: 320 g/ha, 3 weeks after application
In short: as §3

Apera spica-venti = assay: Test Example 4: herbicidal effect by soil treatment (symbol L)
In short: as §1

Abutilon theophrasti = assay: Test Example 4: herbicidal effect by soil treatment (symbol M)
In short: as §1

[4] = application herbicide amount 320 g/ha
[5] = application herbicide amount 192 g/ha

COCCON=C(C)CC1CC(O)=C(c2c(C)cc(-n3cc(Cl)cn3)cc2C)C1=O (centres unmarked) [9-016]
Herbicidal effect grade, J: Alopecurus myosuroides (Alopecurus myosuroides [1]; [4]): 5 (Herbicidal ratio of 90% or more (almost completely withered)) | Herbicidal effect grade, I: Avena fatua (Avena fatua; [4]): 2 (Herbicidal ratio of 20% or higher and lower than 40%) | Effect on crop grade, d: soybean (soybean; [4]): 0 (Herbicidal ratio of 5% or lower (almost no effect)) | Effect on crop grade, e: wheat (wheat; [4]): 0 (Herbicidal ratio of 5% or lower (almost no effect)) | H: Echinochloa crus-galli var. crus-galli, herbicidal effect grade ([2]; 320 g/ha): 5 (Herbicidal ratio of 90% or more (almost completely withered)) | Herbicidal effect grade, C: Monochoria vaginalis (Monochoria vaginalis; [4]): 1 (Herbicidal ratio of 5% or higher and lower than 20%) | Herbicidal effect grade, G: Setaria viridis (Setaria viridis; [4]): 5 (Herbicidal ratio of 90% or more (almost completely withered)) | J: Alopecurus myosuroides, herbicidal effect grade (Alopecurus myosuroides [3]; 320 g/ha): 5 (Herbicidal ratio of 90% or more (almost completely withered)) | B (Scirpus juncoides) herbicidal effect grade (Scirpus juncoides; [4]): 5 (Herbicidal ratio of 90% or more (almost completely withered)) | Effect on crop grade, b: directly sowed rice plant (rice; [4]): 5 (Herbicidal ratio of 90% or more (almost completely withered)) | F: Digitaria ciliaris, herbicidal effect grade (Digitaria ciliaris; 320 g/ha): 5 (Herbicidal ratio of 90% or more (almost completely withered)) | Herbicidal effect grade, R: Veronica persica (Veronica persica; [4]): 0 (Herbicidal ratio of 5% or lower (almost no effect)) | Herbicidal effect grade, P: Stellaria media (Stellaria media; [4]): 0 (Herbicidal ratio of 5% or lower (almost no effect)) | b: directly sowed rice plant, effect on crop grade (rice plant; 320 g/ha): 5 (Herbicidal ratio of 90% or more (almost completely withered)) | O: Chenopodium album, herbicidal effect grade (Chenopodium album): 2 (Herbicidal ratio of 20% or higher and lower than 40%) | Herbicidal effect grade, L: Apera spica-venti (Apera spica-venti; [4]): 1 (Herbicidal ratio of 5% or higher and lower than 20%) | Herbicidal effect grade, M: Abutilon theophrasti (Abutilon theophrasti; [4]): 0 (Herbicidal ratio of 5% or lower (almost no effect))

C=C(C)CN(CC)C(=O)OC1=C(c2c(C)cc(C)cc2C)C(=O)C(CC(C)=NOC)C1 (centres unmarked) [1-130]
J: Alopecurus myosuroides, herbicidal effect grade (Alopecurus myosuroides [1]; 320 g/ha): 3 (Herbicidal ratio of 40% or higher and lower than 70%) | I: Avena fatua, herbicidal effect grade (Avena fatua; 320 g/ha): 0 (Herbicidal ratio of 5% or lower (almost no effect)) | d: soybean, effect grade on crop (soybean; 320 g/ha): 0 (Herbicidal ratio of 5% or lower (almost no effect)) | e: wheat, effect grade on crop (wheat; 320 g/ha): 0 (Herbicidal ratio of 5% or lower (almost no effect)) | H: Echinochloa crus-galli var. crus-galli, herbicidal effect (criteria 0-5) ([2]; 320 g/ha): 5 (Herbicidal ratio of 90% or more (almost completely withered)) | Herbicidal effect grade, C: Monochoria vaginalis (Monochoria vaginalis; [4]): 0 (Herbicidal ratio of 5% or lower (almost no effect)) | G: Setaria viridis, herbicidal effect grade (Setaria viridis; 320 g/ha): 0 (Herbicidal ratio of 5% or lower (almost no effect)) | J: Alopecurus myosuroides, herbicidal effect (criteria 0-5) (Alopecurus myosuroides [3]; 320 g/ha): 5 (Herbicidal ratio of 90% or more (almost completely withered)) | Herbicidal effect grade, B: Scirpus juncoides (Scirpus juncoides; [4]): 0 (Herbicidal ratio of 5% or lower (almost no effect)) | b: directly sowed rice plant, effect grade on crop (rice; 320 g/ha): 0 (Herbicidal ratio of 5% or lower (almost no effect)) | F: Digitaria ciliaris, herbicidal effect (criteria 0-5) (Digitaria ciliaris; 320 g/ha): 4 (Herbicidal ratio of 70% or higher and lower than 90%) | R: Veronica persica, herbicidal effect grade (Veronica persica; 320 g/ha): 0 (Herbicidal ratio of 5% or lower (almost no effect)) | P: Stellaria media, herbicidal effect grade (Stellaria media; 320 g/ha): 0 (Herbicidal ratio of 5% or lower (almost no effect)) | b: directly sowed rice plant, effect on crop (criteria 0-5) (rice plant; 320 g/ha): 5 (Herbicidal ratio of 90% or more (almost completely withered)) | L: Apera spica-venti, herbicidal effect grade (Apera spica-venti; 320 g/ha): 3 (Herbicidal ratio of 40% or higher and lower than 70%) | M: Abutilon theophrasti, herbicidal effect grade (Abutilon theophrasti; 320 g/ha): 0 (Herbicidal ratio of 5% or lower (almost no effect))

CCC(CC1CC(O)=C(c2c(C)cc(Br)cc2OC)C1=O)=NOC (mixture of isomers) [13-001]
J: Alopecurus myosuroides, herbicidal effect grade (Alopecurus myosuroides [1]; [4]): 4 (Herbicidal ratio of 70% or higher and lower than 90%) | I: Avena fatua, herbicidal effect grade (Avena fatua; [4]): 2 (Herbicidal ratio of 20% or higher and lower than 40%) | d: soybean, effect on crop grade (soybean; [4]): 0 (Herbicidal ratio of 5% or lower (almost no effect)) | e: wheat, effect on crop grade (wheat; [4]): 0 (Herbicidal ratio of 5% or lower (almost no effect)) | H: Echinochloa crus-galli var. crus-galli, herbicidal effect grade ([2]; 320 g/ha): 5 (Herbicidal ratio of 90% or more (almost completely withered)) | Herbicidal effect grade, C: Monochoria vaginalis (Monochoria vaginalis; [4]): 0 (Herbicidal ratio of 5% or lower (almost no effect)) | J: Alopecurus myosuroides, herbicidal effect grade (Alopecurus myosuroides [3]; 320 g/ha): 5 (Herbicidal ratio of 90% or more (almost completely withered)) | B (Scirpus juncoides) herbicidal effect grade (Scirpus juncoides; [4]): 2 (Herbicidal ratio of 20% or higher and lower than 40%) | b: directly sowed rice plant, effect on crop grade (rice; [4]): 5 (Herbicidal ratio of 90% or more (almost completely withered)) | F: Digitaria ciliaris, herbicidal effect grade (Digitaria ciliaris; 320 g/ha): 5 (Herbicidal ratio of 90% or more (almost completely withered)) | R: Veronica persica, herbicidal effect grade (Veronica persica; [4]): 0 (Herbicidal ratio of 5% or lower (almost no effect)) | P: Stellaria media, herbicidal effect grade (Stellaria media; [4]): 0 (Herbicidal ratio of 5% or lower (almost no effect)) | b: directly sowed rice plant, effect on crop grade (rice plant; 320 g/ha): 5 (Herbicidal ratio of 90% or more (almost completely withered)) | O: Chenopodium album, herbicidal effect grade (Chenopodium album): 0 (Herbicidal ratio of 5% or lower (almost no effect)) | L: Apera spica-venti, herbicidal effect grade (Apera spica-venti; [4]): 5 (Herbicidal ratio of 90% or more (almost completely withered)) | M: Abutilon theophrasti, herbicidal effect grade (Abutilon theophrasti; [4]): 0 (Herbicidal ratio of 5% or lower (almost no effect))

CON=C(C)CC1CC(OC(=O)C2CCCO2)=C(c2c(C)cc(C)cc2C)C1=O (centres unmarked) [1-076]
J: Alopecurus myosuroides, herbicidal effect grade (Alopecurus myosuroides [1]; 192 g/ha): 4 (Herbicidal ratio of 70% or higher and lower than 90%) | I: Avena fatua, herbicidal effect grade (Avena fatua; 192 g/ha): 4 (Herbicidal ratio of 70% or higher and lower than 90%) | d: soybean, effect grade on crop (soybean; 192 g/ha): 0 (Herbicidal ratio of 5% or lower (almost no effect)) | e: wheat, effect grade on crop (wheat; 192 g/ha): 4 (Herbicidal ratio of 70% or higher and lower than 90%) | H: Echinochloa crus-galli var. crus-galli, herbicidal effect (criteria 0-5) ([2]; 192 g/ha): 5 (Herbicidal ratio of 90% or more (almost completely withered)) | Herbicidal effect grade, C: Monochoria vaginalis (Monochoria vaginalis; [5]): 0 (Herbicidal ratio of 5% or lower (almost no effect)) | G: Setaria viridis, herbicidal effect grade (Setaria viridis; 192 g/ha): 5 (Herbicidal ratio of 90% or more (almost completely withered)) | J: Alopecurus myosuroides, herbicidal effect (criteria 0-5) (Alopecurus myosuroides [3]; 192 g/ha): 5 (Herbicidal ratio of 90% or more (almost completely withered)) | Herbicidal effect grade, B: Scirpus juncoides (Scirpus juncoides; [5]): 4 (Herbicidal ratio of 70% or higher and lower than 90%) | b: directly sowed rice plant, effect grade on crop (rice; 192 g/ha): 5 (Herbicidal ratio of 90% or more (almost completely withered)) | F: Digitaria ciliaris, herbicidal effect (criteria 0-5) (Digitaria ciliaris; 192 g/ha): 5 (Herbicidal ratio of 90% or more (almost completely withered)) | R: Veronica persica, herbicidal effect grade (Veronica persica; 192 g/ha): 0 (Herbicidal ratio of 5% or lower (almost no effect)) | P: Stellaria media, herbicidal effect grade (Stellaria media; 192 g/ha): 0 (Herbicidal ratio of 5% or lower (almost no effect)) | b: directly sowed rice plant, effect on crop (criteria 0-5) (rice plant; 192 g/ha): 5 (Herbicidal ratio of 90% or more (almost completely withered)) | L: Apera spica-venti, herbicidal effect grade (Apera spica-venti; 192 g/ha): 5 (Herbicidal ratio of 90% or more (almost completely withered)) | M: Abutilon theophrasti, herbicidal effect grade (Abutilon theophrasti; 192 g/ha): 4 (Herbicidal ratio of 70% or higher and lower than 90%)
